Results from PMC12073449, “Development of a Mechanism of Action-Reflective Cell-Based Reporter Gene Assay for Measuring Bioactivities of Therapeutic Glucagon-like Peptide-2 Analogues” (Molecules, 2025).
Ends that are not written are not given here.

Biological target: T1, human GLP-2R (Homo sapiens, UniProt O95838)
T1 construct: The full-length cDNA of human GLP-2R was synthesized, cloned, and inserted into the pLU.cmv.Zeo vector; expressed in transfected cells
T1 sequence (O95838 1-553): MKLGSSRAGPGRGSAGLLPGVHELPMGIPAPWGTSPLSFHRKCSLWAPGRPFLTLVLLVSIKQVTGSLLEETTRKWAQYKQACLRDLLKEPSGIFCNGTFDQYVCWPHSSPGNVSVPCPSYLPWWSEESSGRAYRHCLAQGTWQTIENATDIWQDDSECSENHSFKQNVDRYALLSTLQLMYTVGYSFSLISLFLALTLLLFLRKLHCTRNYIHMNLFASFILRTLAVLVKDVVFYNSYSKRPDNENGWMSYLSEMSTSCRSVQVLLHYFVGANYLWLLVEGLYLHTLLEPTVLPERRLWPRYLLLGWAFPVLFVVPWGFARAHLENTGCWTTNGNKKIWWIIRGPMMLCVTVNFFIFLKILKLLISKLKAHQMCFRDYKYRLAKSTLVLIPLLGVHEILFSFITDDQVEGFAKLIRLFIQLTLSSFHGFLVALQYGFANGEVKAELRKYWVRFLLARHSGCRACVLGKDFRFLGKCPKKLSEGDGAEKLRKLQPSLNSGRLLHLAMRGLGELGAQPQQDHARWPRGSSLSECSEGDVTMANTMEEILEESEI
Assay: Cell-based reporter gene assay (RGA), HEK293-GLP-2R-Luc, CRE-luciferase
Settings: diluted to 2.665 µmol/L and further 7-fold for 10 concentration points; HEK293-GLP-2R-Luc cells
Description: To generate a HEK293 cell line stably expressing CRE-driven luciferase and GLP2R, the CRE-miniP.Luc virus-containing cell supernatants were diluted in DMEM in the presence of 8 µg/mL polybrene before being added to HEK293 cells. To obtain a stable cell pool, the medium was replaced 48 h after incubation, with fresh culture medium containing 3 µg/mL puromycin. After about 3 weeks selection, the cell pool was then further infected with pLU.cmv-GLP2R.Zeo virus and selected with 200 µg/mL Zeocin and 3 µg/mL puromycin. […] The expression of GLP-2R was examined using flow cytometry. After that, the positive clones were routinely maintained in selective medium.
Cell-based RGA has been described previously. Briefly, 50 microliters of HEK293-GLP-2R-Luc cells were seeded into a 96-well white plate at a density of 4 × 10^4 cells/well. The cells were then incubated at 37 °C with 5% CO2 overnight (16 to 24 h). […] After 5 h of incubation, 100 µL of britelite plus reporter Gene Assay reagent were added to each well and mixed thoroughly under subdued light conditions for 5 min. The RLU signal was then determined with a SpectraMax M5e multimode plate reader (Molecular Devices, San Jose, CA, USA).
The RGA was validated as described previously. […] Samples of each potency level were tested by two analysts 8 times in total. […] The response of HEK293-GLP2R-Luc cells to these samples were determined as illustrated in 4.6.
The lower/upper asymptote was determined by the ratio of the top asymptote to the bottom asymptote when RGA best fit the 4PL model. The correlation coefficient (R^2), deviations from parallelism, and the regression in the 4PL model were estimated using SoftMax® Pro 7.1 software (Molecular Devices, San Jose, CA, USA). Specifically, a linear regression with an R^2 value no less than 0.98 was considered to have a very good fit. Additionally, a p-value below 0.01 was regarded as statistically significant. […] All the dose-response curves were plotted using GraphPad Prism® software 8.0.2 (GraphPad, Boston, MA, USA).

## HGEGTFSSELATILDALAARDFINWLIATKITDKKKKKK-NH2 [glepaglutide]
  dose-response curve in RGA: induced sigmoid curves similar to those induced by teduglutide
